Assay results taken from patent US7071182B2, “Antagonists of melanin concentrating hormone effects on the melanin concentrating hormone receptor” (Abbott Laboratories, priority 2003, dated 2006).

Experiment: Pharmacokinetic drug levels in whole brain after 10 mpk oral dose in DIO mice
Format: in vivo
Conditions: harvested 0.5-24 h after the dose

Brain Conc. AUC: 1428 ng·h/g
SMILES: O=C(Nc1ccc(Oc2ccccc2)cc1)Nc1ccc2c(cnn2CCN2CCCC2)c1 [Example 24, N-(4-phenoxyphenyl)-N′-[1-(2-pyrrolidin-1-ylethyl)-1H-indazol-5-yl]urea]
